Test results from patent US10420759B2, “Small molecule therapies for pulmonary hypertension” (Creighton University, priority 2016, dated 2019).
Each block holds one compound with its values, some of them ahead of it.

Legend:
[1] = test system: small pulmonary arteries in mouse precision-cut lung slices; experiment: Relaxation of pre-constricted small pulmonary arteries in mouse precision-cut lung slices; type: cell-based; conditions: for EC50: Mus musculus, pre-constricted with 100 nM 5-HT; for maximal relaxation: % relaxation of pre-constriction to 100 nM 5-HT
Description: Precision cut lung slices were prepared using a modification of previously reported procedures (see e.g., Jiang et al., 2010, J. Pharmacol. Exp. Ther. 334:703-709) and based on the method described by Perez-Joghbi and Sanderson (see e.g., Perez-Joghbi, J. F. and Sanderson, M. J., Am. J. Physiol., 2007, 293:L1000-L1011). Mice were euthanized with CO2, a 2 cm long incision was made in the midline of the neck above the trachea and the trachea was isolated from surrounding tissue. The trachea was cut open and cannulated with PE 90 plastic tubing. A solution of 2% low melting point agarose (Sigma-Aldrich, St. Louis Mo.) in Hanks Buffered Salt solution (HBSS) was prepared at 37° C. Lungs were inflated by injecting 1.2 ml of 2% agarose followed by 0.2 ml of air through the tracheal cannula. The chest was then opened along the midline and the heart was exposed. A solution of 6% gelatin (Sigma-Aldrich, St. Louis Mo.) was prepared in HBSS and 0.4 mL was injected into the right ventricle using a 1 mL syringe and 26 gauge needle, to fill the pulmonary arteries with gelatin. The mouse was cooled to 4° C. for 15 min to harden the agarose and gelatin to stiffen the lung for sectioning. The individual lung lobes were then isolated, glued to a platform and sliced perpendicular to the long axis of the lung. 150 μm thick slices were prepared in ice cold HBSS using an EMS-4000 tissue slicer (Electron Microscopy Sciences, Fort Wash. Pa.). The slices were maintained in sterile, serum-free Dulbecco's modified Eagle's medium (DMEM, Gibco, Grand Island, N.Y.) containing penicillin (100 U/mL, Cellgro, Manassas, Va.), streptomycin (100 μg/mL, Cellgro, Manassas, Va.) and amphotericin B (1.5 μg/mL, Cellgro, Manassas, Va.) at 37° C. and 5% CO2+95% air in a humidified incubator for not more than 3 days.
The method used to measure constriction and relaxation of pulmonary arteries in lung slices is a modification of a method previously described that was used to measure constriction and relaxation of mouse airways (see e.g., Jiang et al., 2010 J. Pharmacol. Exp. Ther. 334:703-709). Lung slices were placed on glass coverslips in a 1 mL volume incubation chamber and held in place with nylon mesh (Small Parts Inc, Miami Lakes, Fla.). The chamber was placed on the stage of a Nikon (Melville, N.Y.) TE200 inverted microscope at room temperature and slices incubated in HBSS containing 10 mM HEPES buffer. Pulmonary arteries in lung slices were imaged using a 20× objective and images recorded using a CoolSNAP HQ2 digital camera (Photometrics, Tucson Ariz.). Images in the absence and the presence of the vasoconstrictor 5-HT (Sigma-Aldrich, St. Louis, Mo.) and the vasorelaxants pirfenidone (Sigma-Aldrich, St. Louis Mo.) and CXN-8, CXN-9 and CXN-16 were collected and vasoconstriction and vasorelaxation was calculated by pixel summing of the cross-sectional area of the pulmonary artery lumen before and after addition of the test agent, using ImageJ software (http://imagej.nih.gov). A decrease in cross-sectional area was defined as vasoconstriction while an increase in cross-sectional area was defined as vasorelaxation, as shown in FIGS. 1A-1B.
First, small pulmonary arteries were pre-constricted in mouse precision-cut lung slices with 100 nM 5-HT, a concentration that causes submaximal constriction of pulmonary arteries, as shown in FIG. 1A.

[2] = test system: mouse isolated extralobar pulmonary arteries; experiment: Relaxation of pre-constricted mouse isolated extralobar pulmonary artery rings (isometric tension); type: cell-based; conditions: for EC50: Mus musculus; for relaxation: 1 μM
Description: Mouse extralobar pulmonary arteries were isolated and prepared using a modification of a previously reported procedure (see e.g., Bockman et al., 1996, J. Pharmacol. Exp. Ther. 278:1235-1243). Mice were euthanized with CO2, the chest was opened, and the heart and lung combined were isolated from surrounding tissue. The main pulmonary artery was isolated from its origin at the right ventricle, past its bifurcation into the right and left pulmonary arteries. The artery segment was removed and placed in Krebs solution (composition in mM: NaCl 126, KCl 5.5, CaCl2 2.5, NaH2PO4 1.2, MgCl2 1.2, NaHCO3 25, dextrose 11.1, Na2Ca EDTA 0.029) equilibrated with 95%02-5% CO2 (pH 7.4). The pulmonary artery segment was cleaned of connective tissue and the main pulmonary artery and its right and left branches were cut into 2 mm long rings. The rings were mounted using 2 stainless steel pins (0.1 mm in diameter) passed through the artery lumen. One pin was attached to a Kent isometric force transducer (Kent Scientific Corp, Torrington Conn.) for measurement of isometric tension while the second pin was held in a fixed position. This allowed for measurement of contraction and relaxation of the ring in the circular direction. Mounted rings were placed in 10 mL of Krebs solution in glass muscle chambers (Radnoti, Monrovia, Calif.) gassed with 95% 02-5% CO2, and maintained at 37° C. Rings were washed with Krebs solution and equilibrated for 90-120 min at a passive resting tension of 150 mg before experiments with test agents were started.
Mouse isolated extralobar pulmonary arteries were pre-constricted with 250 nM 5-HT, a concentration that causes submaximal constriction, as shown in FIG. 2A. Cumulative addition of pirfenidone and CXN-8 caused a concentration-dependent relaxation of mouse pulmonary arteries with a maximal relaxation of 84.9±3.4% and 76.7±7.0%, respectively, as shown in FIG. 2B.
The endothelium was removed from pulmonary arteries by inserting a small (200 μm diameter) wire into the inside lumen of the arteries and gently rubbing the internal surface. To test for the presence of functional endothelium, rings with and without rubbing were contracted with 250 nM 5-HT followed by relaxation using 1 μM of the endothelium dependent vasorelaxant acetylcholine. Rings that relaxed by 5% or less were considered as lacking the endothelium. Rings with and without endothelium were used to test the relaxant effects of CXN-8.
The synthesis of NO is mediated by a family of NO synthase enzymes. It is well accepted that acetylcholine induces relaxation of pulmonary arteries via endothelium-dependent NO production. Nitric oxide production was inhibited in pulmonary arteries by 30 min incubation with the nitric oxide synthesis inhibitor nitro-L-arginine methyl ester (L-NAME, 100 μM). To test for nitric oxide synthase inhibition by L-NAME, rings were contracted with 250 nM 5-HT followed by relaxation using 1 μM of the nitric oxide dependent vasorelaxant acetylcholine. The relaxant effects of CXN-8 were then tested in rings in the absence (with nitric oxide) and the presence (without nitric oxide) of L-NAME.

hypoxic mice (C57BL/6) = experiment: RVSP in chronic hypoxia model of PH in mice, acute intravenous CXN-8; type: in vivo, mouse; conditions: 1.4 mg/kg i.v. via femoral vein, baseline 56.4±1.0 mmHg
Description: (§1) Mice (20-25 g) were anesthetized via an intraperitoneal (i.p.) injection of a combination of xylazine (10 mg/kg body weight) and ketamine (100 mg/kg body weight). One-half dose was given as supplemental anesthesia as needed. Animals were placed on a heating pad set to maintain body temperature at approximately 37° C. The neck and upper chest area were cleaned with 70% isopropyl alcohol and a 2 cm long incision was made anterior to the manubrium on the right side and above the jugular fossa. The jugular fossa was identified and the external jugular vein was isolated from surrounding tissue. The anterior projection of the jugular vein was tied off with 8-0 silk suture and a 1 mm incision was made in the jugular vein. A 1 French Mikro-Tip pressure catheter (Millar Inc, Houston, Tex.) catheter was inserted into the jugular vein and advanced through the right atrium into the right ventricle to measure ventricular systolic pressure of mice via a pressure transducer using PowerLab monitoring hardware and software (AD Instruments, Colorado Springs, Colo., USA). The pressure catheter was secured in place using an 8-0 silk suture tied around the catheterized jugular vein. […]
(§2) CXN-8 was administered intravenously in a dose-escalation manner in 15 minute intervals from doses of 0.14 mg/kg to 4.6 mg/kg. Hemodynamic indices, including heart rate (HR) and RVSP were measured. […]

RGS2−/− mice = experiment: RVSP in RGS2 knockout mice, acute intravenous CXN-8; type: in vivo, mouse; conditions: RGS2 KO mice, 4.6 mg/kg i.v. via femoral vein; baseline 36.7±1.9 mmHg
Description: as §1, §2

eNOS−/− mice = experiment: Right ventricular systolic pressure (RVSP) in eNOS-knockout mice, acute intravenous CXN-8; type: in vivo, mouse; conditions: 4.6 mg/kg i.v. via femoral vein, baseline 40.7±7.6 mmHg
Description: as §1, §2

[3] = test system: mouse isolated extralobar pulmonary arteries; experiment: Relaxation of pre-constricted mouse isolated extralobar pulmonary artery rings (isometric tension); type: cell-based; conditions: for EC50: Mus musculus
[4] = intact rings pre-constricted with 250 nM 5-HT
[5] = 250 nM 5-HT, pre-treatment with L-NAME (100 μM)
[6] = endothelium-denuded arteries, 250 nM 5-HT

SMILES: Cc1ccc(=O)n(-c2ccc(OCCCCN3CCCCC3)cc2)c1 [CXN-9, 5-methyl-1-(4-(4-(piperidin-1-yl)butoxy)phenyl)pyridin-2(1H)-one]
EC50 [1]: 69.8 nM

EC50 ([1]; cumulative addition): 14300 nM | EC50 [2, 4]: 94000 nM
SMILES: Cc1ccc(=O)n(-c2ccccc2)c1 [pirfenidone, 5-methyl-1-phenylpyridin-2(1H)-one, reference compound]
maximal relaxation [1]: 81.2±4.8% | maximal relaxation [2, 4]: 84.9±3.4%

SMILES: CC(=O)OCC[N+](C)(C)C [acetylcholine, reference compound]
relaxation ([2]; 250 nM 5-HT-pre-contracted endothelium-denuded arteries): 5% | relaxation ([2]; 250 nM 5-HT-pre-contracted endothelium-intact arteries): 42%

EC50 [1]: 5.6 nM | EC50 ([3]; ET-1 pre-contracted arteries): 21.7 nM | EC50 ([3]; U46619 pre-contracted arteries): 40.3 nM | EC50 ([2]; 250 nM 5-HT, absence of L-NAME): 5.6 nM | EC50 [2, 5]: 9.9 nM | EC50 [2, 6]: 10.9 nM | EC50 [2, 4]: 5.2 nM
SMILES: Cc1ccc(=O)n(-c2ccc(OCCCN3CCCCC3)cc2)c1 [CXN-8, 5-methyl-1-(4-(3-(piperidin-1-yl)propoxy)phenyl)pyridin-2(1H)-one]
RVSP after treatment (hypoxic mice (C57BL/6)): 37.4±1.7 mmHg | maximal relaxation [1]: 77.1±9.6% | RVSP after treatment (RGS2−/− mice): 19.6±0.9 mmHg | RVSP after treatment (eNOS−/− mice): 29.3±1.5 mmHg | maximal relaxation ([3]; U46619 (20 nM) pre-contracted arteries): 70.6±7.1% | maximal relaxation ([3]; endothelin 1 (ET-1, 10 nM) pre-contracted arteries): 86.6±4.1% | maximal relaxation ([2]; 250 nM 5-HT, absence of L-NAME): 74.5±7.4% | maximal relaxation [2, 5]: 45.5±6.2% | maximal relaxation [2, 6]: 47.2±2.9% | maximal relaxation [2, 4]: 76.7±7.0%

SMILES: Cc1ccc(=O)n(-c2ccc(OCCCCN(C)C)cc2)c1 [CXN-16, 1-(4-(4-(dimethylamino)butoxy)phenyl)-5-methylpyridin-2(1H)-one]
EC50 ([1]; unit inferred): 1700 nM
